Test results: ChEMBL document CHEMBL1127129, “N,N-disubstituted acetamidines as high affinity sigma receptor ligands” (Bioorg Med Chem Lett, 1993)

Biological target: Glutamate NMDA receptor
Assay: The compound was evaluated for binding affinity against NMDA receptor ion-channel site using [3H]-MK 801 radioligand in rat brain membranes
Format: cell membranes

Compound | IC50
C/C(=N\c1ccccc1C)Nc1ccccc1C | 10 µM
C/C(=N\C12CC3CC(CC(C3)C1)C2)Nc1ccccc1C | 10 µM
C/C(=N\C1CCCCC1)Nc1ccccc1C | 10 µM
C/C(=N\C1CC2CCC1C2)Nc1ccccc1C (configuration not stated) | 80 µM
C/C(=N\C1CCCCC1)NC12CC3CC(CC(C3)C1)C2 | 10 µM
C/C(=N\C12CC3CC(CC(C3)C1)C2)NC12CC3CC(CC(C3)C1)C2 | 10 µM
C/C(=N\c1ccc(Br)cc1C)Nc1ccc(Br)cc1C | 9.11 µM
